Measurements from patent publication US5023265A, “Substituted 1-H-pyrrolopyridine-3-carboxamides” (Schering Corporation, priority 1990, dated 1991).
Like-named read-outs stand apart in the source and are kept apart here.

How the values were obtained:
[1] = test system: Reversed Passive Arthus Reaction (RPAR) in the rat paw; test: RPAR-Paw Assay (Reversed Passive Arthus Reaction, rat paw); type: in vivo, male Wistar/Lewis inbred albino rats; settings: oral, paw volume 2 hours postchallenge, read-out: RPAR-Paw % Inhib.
Protocol: In order to determine the antiinflammatory activity by the reverse passive Arthus response, male Wistar/Lewis inbred albino rats weighing 180-200 g were used. The rats were housed three animals per cage and fasted 24 hours prior to and during the study. Water was allowed ad libitum.
All reagents and drugs were prepared prior to the study. Crystallized and lyophilized bovine serum albumin (BSA) was solubilized in cold, sterile, pyrogen-free saline (PFS), 10 mg/mL. Lyophylized antibovine serum albumin (anti-BSA), the IgG fraction, was suspended or solubilized in an aqueous solution of methylcellulose (MC) with a homogenizer prior to administration.
One hour prior to sensitization with BSA, groups of animals (minimum six per group) were given drug in MC by gavage according to body weight (1.0 mL/100 g). Controls were given MC alone, and a drug standard, indomethacin, was usually included in each assay. Drugs were prepared so as to provide a dose for a 200 g animal, which was equivalent to the milligram per kilogram dose for the experiment. Each rat received an oral dose in a volume of approximately 2.0 mL. One hour after dosing, the animals were lightly anesthetized with ether and "sensitized" by injection into the penile vein with 0.2 mL of PFS containing 1 mg of BSA. One hour later, the animals were "challenged" in the right hind paw with subplantar injections of 0.2 mL PFS pyrogen-free salin containing 0.1 mg of anti-BSA bovine serum albumin. Immediately after the subplantar injections, the right hand paw was immersed (to the lateral maleolus) into the mercury well of a plethysmograph. The volume of mercury displaced was converted to weight and recorded. This value was considered to be the control reading for the animal. Paw volumes were also recorded with a plethysmograph during the development of the inflammation at 2 hours postchallenge.
Results were expressed by the change in paw volume from the control reading for each animal to that recorded 2 hours postchallenge. All drug-treated groups were compared to the MC control for significant differences by using analysis of variance (Duncan and Dunnetts). Differences from control in drug-treated groups were expressed as percent inhibition.
In order to determine the dose required to inhibit the inflammatory response by 50% (ED50), a minimum of three and a maximum of five points were included in the assay. The ED50 and the relative potency to a drug standard, indomethacin, were determined by linear regression analysis. (J. Med. Chem., 1984, Vol. 27, No. 1, 27). Results for representative compounds of the invention are shown in Columns 3 and 4 of Table 1 below.

[2] = test system: Reversed Passive Arthus Reaction (RPAR) in the rat pleural cavity; test: RPAR-Pleural Cavity Assay; type: in vivo, male rats; settings: for inhibition in vivo at 25 mg/kg / inhibition in vivo at 50 mg/kg: Rattus norvegicus, 4 hours
Protocol: RPAR-Pleural Cavity Assay
Groups of 4 male rats were injected in the penile vein with antigen (1 mg BSA in 0.2 mL of saline per rat) and 0.5 hour later injected in the pleural cavity with antibody (1.0 mg antibody protein in the IgG fraction of rabbit anti-BSA in 0.2 mL). […] After 4 hours the animals were killed with CO2, and the pleural cavities were opened and the exudate drained into a graduated conical glass centrifuge tube containing indomethacin (1.8 μg) and nordihydroguaiaretic acid (NDGA) (15 μg) to block ex vivo metabolite synthesis. The volume of the exudate was measured. The cavity was then washed out with saline-EDTA to achieve a final volume of 5.0 mL. The number of cells were determined in a Coulter Counter. The cells were spun-down (1000×g) and the exudate supernatant was added to 4 volumes of 95% ethanol and samples were kept on ice for 30 minutes. After removal of the protein precipitate (2,500×g) the ethanol extract of the exudate was dried under N2 and then stored at -20° C. For radioimmunoassay (RIA) analysis the samples were redissolved in water to a volume of 1 mL per rat. Utilizing internally spiked samples, recovery of TXB2 (tritiated thromboxane B2) and LTE4 (tritiated leukotriene-E4) from exudates was determined to be 84±2% (SEM) and 89±2% (N=4), respectively. Exudate samples were directly assayed in duplicate with the commercial ^3 H-TXB2 RIA kit from New England Nuclear and the ^3 H-LTC4 /D4 /E4 kit from Amersham. The assay was validated using reversed-phase HPLC analysis of LTs in the standard procedure described by M. W. Musch, R. W. Bryant, C. Coscollaela, R. F. Myers and M. I. Siegel, Prostaglandins, Vol. 29, pp 405-430 (1985). Samples of ethanol exudate extract were "spiked" with ^3 H-LTs to follow HPLC purification and recovery.

cyclooxygenase = test: Rat CO/LO Inhibition: cyclooxygenase metabolite HHT in rat pleural neutrophils; type: cell-based, male Wistar-Lewis rats; settings: 5 M × 10^-5, rat neutrophils
Protocol: Male Wistar-Lewis rats were injected iv with 5 mg of BSA in 0.2 mL of pyrogen-free saline followed by an intrapleural injection of 500 μg of the IgG fraction of rabbit anti-BSA in 0.2 mL of pyrogen-free saline, all under light anesthesia. After 4 hours the pleural cavity exudate, consisting of 85-95% neutrophils, was removed. Neutrophils were isolated from the pleural exudates by centrifugation at 4° C. for 10 minutes at 200 g. The cell pellet was briefly resuspended in 17 mM Tris-HCl buffer, pH 7.2, containing 0.75% NH4 Cl in order to lyse red cells, followed by centrifugation at 4° C. for 5 minutes at 200 g. The pelleted neutrophils were rewashed in 50 mM Tris-HCl, pH 7.4, containing 100 mM NaCl and 1 mM CaCl2, for a final cell count of approximately 5×10^6 intact neutrophils/0.1 mL of suspension.
Arachidonic acid metabolism via cyclooxygenase and 5-lipoxygenase was determined by preincubating the above cell suspension with the test compound for 4 minutes at room temperature and then adding 0.1 mL of the preincubated cells to assay tubes. The final assay mixture (0.1 mL) contained 40 μM [1-^14 C]arachidonic acid, 10 μM calcium A23187 ionophore and 0.1% BRIJ®56 detergent. After 1 minutes at 37° C., assays were terminated by the addition of 2.4 mL of a CHCl3 /CH3 OH (1:1 v/v) mixture and 0.9 mL of 0.1% HCOOH. The suspension was vortexed, immediately cooled on ice, and centrifuged and the organic layer withdrawn. The extract was evaporated and resuspended in 0.1 mL of CHCl3 /CH3 OH (1:2, v/v) for spotting on silica gel TLC plates (without gypsum). Development was with petroleum ether/diethylether/acetic acid (40:60:1, v/v/v). Products were located by autoradiography and the appropriate regions scraped and counted in a liquid scintillation counter. The 5-lipoxygenase metabolite 5-hydroxy-6,8,11,14-eicosatetraenoic acid (5-HETE) and the cyclooxygenase metabolite 12-hydroxy-[…] (HHT) were identified by cochromatography with authentic standards on TLC plates. Results are reported as percent inhibition of cyclooxygenase and lipoxygenase metabolite formation. (Myers, R. F.; Siegel, M. I., Biochem. Biophys. Res. Commun., 1983, 112, 586.) Results with representative compounds of the invention are shown in Columns 10, 11 and 12 of Table 1 below.

[3] = test system: Adjuvant-Induced Arthritis in Rats; test: Adjuvant-Induced Arthritis in Rats (AAR); type: in vivo; settings: Rattus norvegicus, 504 h; dosed 1 hour prior to adjuvant, then 21 consecutive days
[4] = read-out: RPAR-Pleural Cavity % Inhibition Cells
[5] = exudate volume, read-out: RPAR-Pleural Cavity % Inhibition Fluid
[6] = 50 mg/kg, read-out: RPAR-Pleural Cavity % Inhibition Cells
[7] = 50 mg/kg, exudate volume, read-out: RPAR-Pleural Cavity % Inhibition Fluid

## O=C(Nc1ccccc1)c1c(O)n(-c2ccccc2)c2ncccc12
[1]
  inhibition in vivo at 25 mg/kg: 60%
[2]; 50 mg/kg, LTE4 in exudate by RIA
  RPAR-Pleural Cavity % Inhibition LTE4: 59%
[2]; 50 mg/kg, TXB2 in exudate by RIA
  RPAR-Pleural Cavity % Inhibition TXB2: 100%
[2]; [4]
  inhibition in vivo at 25 mg/kg: 56%
[2]; [5]
  inhibition in vivo at 25 mg/kg: 49%
[2]; [6]
  inhibition in vivo at 50 mg/kg: 61%
[2]; [7]
  inhibition in vivo at 50 mg/kg: 27%
cyclooxygenase
  Cyclooxygenese/lipoxygenese % Inhib. HHT: 93%
[3]
  ED50: 9 mg/kg

## O=C(Nc1ccccc1)c1c(O)n(-c2cccc(C(F)(F)F)c2)c2ncccc12
[1]
  inhibition in vivo at 50 mg/kg: 60%
[2]; [4]
  inhibition in vivo at 25 mg/kg: 0%
[2]; [5]
  inhibition in vivo at 25 mg/kg: 0%
cyclooxygenase
  Cyclooxygenese/lipoxygenese % Inhib. HHT: 56%

## CC(C)(C)n1c(O)c(C(=O)Nc2ccccc2)c2cccnc21
[1]
  inhibition in vivo at 25 mg/kg: 36%
[2]; [4]
  inhibition in vivo at 25 mg/kg: 41%
[2]; [5]
  inhibition in vivo at 25 mg/kg: 26%

## O=C(Nc1ccccn1)c1c(O)n(-c2ccccc2)c2ncccc12
[1]
  inhibition in vivo at 50 mg/kg: 26%
cyclooxygenase
  Cyclooxygenese/lipoxygenese % Inhib. HHT: 78%

## O=C(Nc1ccccc1)c1c(O)n(-c2ccc(Cl)cc2)c2ncccc12
[1]
  inhibition in vivo at 50 mg/kg: 56%
[2]; [4]
  inhibition in vivo at 25 mg/kg: 51%
[2]; [5]
  inhibition in vivo at 25 mg/kg: 18%
cyclooxygenase
  Cyclooxygenese/lipoxygenese % Inhib. HHT: 96%

## O=C(Nc1cccc(C(F)(F)F)c1)c1c(O)n(-c2ccccc2)c2ncccc12
[1]
  inhibition in vivo at 25 mg/kg: 41%
[2]; [4]
  inhibition in vivo at 25 mg/kg: 22%
[2]; [5]
  inhibition in vivo at 25 mg/kg: 0%
cyclooxygenase
  Cyclooxygenese/lipoxygenese % Inhib. HHT: 60%

## O=C(Nc1ccc(F)cc1F)c1c(O)n(-c2ccccc2)c2ncccc12
[1]
  inhibition in vivo at 50 mg/kg: 33%
cyclooxygenase
  Cyclooxygenese/lipoxygenese % Inhib. HHT: 96%

## O=C(Nc1ccccc1)c1c(O)n(Cc2ccccc2)c2ncccc12
[1]
  inhibition in vivo at 25 mg/kg: 42%
[2]; [4]
  inhibition in vivo at 25 mg/kg: 36%
[2]; [5]
  inhibition in vivo at 25 mg/kg: 76%
cyclooxygenase
  Cyclooxygenese/lipoxygenese % Inhib. HHT: 34%
[3]
  ED50: 33 mg/kg

## Cc1cc(NC(=O)c2c(O)n(-c3ccccc3)c3ncccc23)no1
[1]
  inhibition in vivo at 25 mg/kg: 10%
[2]; [4]
  inhibition in vivo at 25 mg/kg: 0%
[2]; [5]
  inhibition in vivo at 25 mg/kg: 0%
cyclooxygenase
  Cyclooxygenese/lipoxygenese % Inhib. HHT: 45%

## O=C(Nc1ccccc1)c1c(O)[nH]c2ncccc12
[1]
  inhibition in vivo at 25 mg/kg: 22%
cyclooxygenase
  Cyclooxygenese/lipoxygenese % Inhib. HHT: 0%

## COc1ccc(NC(=O)c2c(O)n(-c3ccccc3)c3ncccc23)cc1
[1]
  inhibition in vivo at 25 mg/kg: 42%
[2]; [4]
  inhibition in vivo at 25 mg/kg: 28%
[2]; [5]
  inhibition in vivo at 25 mg/kg: 27%

## CCCCNC(=O)c1c(O)n(-c2ccccc2)c2ncccc12
[1]
  inhibition in vivo at 25 mg/kg: 29%
[2]; [4]
  inhibition in vivo at 25 mg/kg: 19%
[2]; [5]
  inhibition in vivo at 25 mg/kg: 0%
cyclooxygenase
  Cyclooxygenese/lipoxygenese % Inhib. HHT: 44%

## O=C(NCc1ccccc1)c1c(O)n(-c2ccccc2)c2ncccc12
[1]
  inhibition in vivo at 25 mg/kg: 0%
[2]; [4]
  inhibition in vivo at 25 mg/kg: 0%
[2]; [5]
  inhibition in vivo at 25 mg/kg: 0%
cyclooxygenase
  Cyclooxygenese/lipoxygenese % Inhib. HHT: 34%

## O=C(Nc1ccccc1)c1c(O)n(Cc2ccc(F)cc2)c2ncccc12
[1]
  inhibition in vivo at 25 mg/kg: 32%
[2]; [4]
  inhibition in vivo at 25 mg/kg: 30%
[2]; [5]
  inhibition in vivo at 25 mg/kg: 46%
cyclooxygenase
  Cyclooxygenese/lipoxygenese % Inhib. HHT: 57%

## CC(C)n1c(O)c(C(=O)Nc2ccccc2)c2cccnc21
[2]; [4]
  inhibition in vivo at 25 mg/kg: 34%
[2]; [5]
  inhibition in vivo at 25 mg/kg: 44%
[2]; [6]
  inhibition in vivo at 50 mg/kg: 65%
[2]; [7]
  inhibition in vivo at 50 mg/kg: 57%

## O=C(O)c1cc(NC(=O)c2c(O)n(-c3ccccc3)c3ncccc23)ccc1O
[1]
  inhibition in vivo at 25 mg/kg: 4%
[2]; [4]
  inhibition in vivo at 25 mg/kg: 0%
[2]; [5]
  inhibition in vivo at 25 mg/kg: 0%

## CC(C)(C)NC(=O)c1c(O)n(-c2ccccc2)c2ncccc12
[1]
  inhibition in vivo at 25 mg/kg: 49%
[2]; [4]
  inhibition in vivo at 25 mg/kg: 66%
[2]; [5]
  inhibition in vivo at 25 mg/kg: 23%

## CC(C)c1ccc(-n2c(O)c(C(=O)Nc3ccccc3)c3cccnc32)cc1
[1]
  inhibition in vivo at 25 mg/kg: 34%
[2]; [4]
  inhibition in vivo at 25 mg/kg: 9%
[2]; [5]
  inhibition in vivo at 25 mg/kg: 8%

## Cn1c(O)c(C(=O)Nc2ccccc2)c2cccnc21
[2]; [4]
  inhibition in vivo at 25 mg/kg: 45%
[2]; [5]
  inhibition in vivo at 25 mg/kg: 5%
cyclooxygenase
  Cyclooxygenese/lipoxygenese % Inhib. HHT: 0%
